Source: patent US20200323219A1, “BIOLOGICAL FUNGICIDE COMPOSED BY PLANT EXTRACTS” (JH Biotech Inc., priority 2019, published 2020)

Legend:
Alternaria brassicicola [1] = assay: Conidial germination of Alternaria brassicicola on slides in a moist chamber; type: cell-based; conditions: 24 hours; for Conidial germination rate (%) in different diluted condition 1000X: diluted 1000 times; for Conidial germination rate (%) in different diluted condition 1500X: diluted 1500 times; for Conidial germination rate (%) in different diluted condition 2000X: diluted 2000 times
Method: The tables differ only in how the gallnut and myrobalan are presented. For Table 1-1, gallnut and myrobalan are presented in vol % as described earlier for the Row 6 procedure while Table 1-2 presents the active ingredients of gallnut and myrobalan as concentration (grams/ml). One drop of 20 μl of pathogen conidia suspension (100 conidia per microliter) was mixed with one drop of 20 μl for each of the eight combinations of gallnut and myrobalan formulations, and at dilutions of 750 times, 1000 times, and 1500 times. Each combination was placed on test slides that were maintained at 100% relative humidity at room temperature. The germination rate of 100 conidia on each slide was calculated visually using a microscope following an incubation period of 24 hours. Tables 2-1 and 2-2 show the same plant extract formulations as in Table 1 but including the addition of a surfactant; specifically, either yucca plant extract (Yucca […]) or sodium lauryl sulfate (SLS). Each was added for testing conidial germinations of Alternaria brassicicola. Dilutions were at 1000 times, 1500 times and 2000 times water. 10 vol % of yucca extract or 5 wt. % of SLS was added to the formulations and then used to test the inhibitory effects on conidial germination on the same fungal pathogen Alternaria brassicicola.

[2] = system: Magnaporthe grisea (teleomorph: Pyricularia oryzae); conditions: 1000 ppm; cited from earlier work
Alternaria brassicicola [3] = conditions: cited from earlier work
Acidovorax citrulli = conditions: cited from earlier work
[4] = system: Xanthomonas euvesicatoria; conditions: cited from earlier work
Ralstonia solanacearum = conditions: cited from earlier work
[5] = Table 2-2, with surfactant (gms/ml per 100 ml)

SMILES | Conidial germination rate (%) in different diluted condition 1000X (Alternaria brassicicola [1]; Table 2-1, with surfactant) [%] | Conidial germination rate (%) in different diluted condition 1500X (Alternaria brassicicola [1]; Table 2-1, with surfactant) [%] | Conidial germination rate (%) in different diluted condition 2000X (Alternaria brassicicola [1]; Table 2-1, with surfactant) [%] | Conidial germination rate (%) in different diluted condition 1000X (Alternaria brassicicola [1]; [5]) [%] | Conidial germination rate (%) in different diluted condition 1500X (Alternaria brassicicola [1]; [5]) [%] | Conidial germination rate (%) in different diluted condition 2000X (Alternaria brassicicola [1]; [5]) [%] | conidial germination [2] | intrusive behavior of the germinated conidia [2] | inhibition of conidial germination (Alternaria brassicicola [3]) | kill or inhibit the pathogen (Acidovorax citrulli) | kill or inhibit the pathogen [4] | kill or inhibit the pathogen (Ralstonia solanacearum)
CCCCCCCCCCCCOS(=O)(=O)[O-].[Na+] [sodium lauryl sulfate] | 55 | 90 | 94 | 55 | 90 | 94 |  |  |  |  |  | 
O=C(O)c1cc(O)c(O)c(O)c1 [gallic acid, 3,4,5-trihydroxybenzoic acid] |  |  |  |  |  |  | stop | stop | effectively inhibit |  |  | 
COC(=O)c1cc(O)c(O)c(O)c1 [methyl gallate] |  |  |  |  |  |  | stop | stop |  | kill or inhibit | kill or inhibit | kill or inhibit
